From US8426447B2, “Spiro-tricyclic ring compounds as beta-secretase modulators and methods of use” (Amgen Inc., priority 2008, dated 2013) come the findings set out here.

Assay [1] deals with T1, BACE1 (Homo sapiens, UniProt P56817). As to the kind of experiment: In Vitro Enzymatic BACE FRET (Fluorescence Resonance Energy Transfer) Assay. The conditions noted are these: read-out: BACE1 FRET assay. It counts as biochemical. In a few lines:
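Run in 0.05 M acetate pH 4.2 with 10% DMSO final and 100 uM genapol detergent below its CMC. Reaction was started with 50 nM FRET peptide substrate (fluorophore and quencher flanking the BACE cleavage site), incubated one hour, stopped with Tris to neutral pH, and fluorescence read.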

Assay [2] addresses T1, BACE1. Briefly: In Vitro BACE Cell-based Assay (HEK cell assay): Aβ40 in conditioned medium of cells stably expressing Amyloid Precursor Protein, sandwich ELISA. The note with it: read-out: HEK cell assay. In a few lines:
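Read-out is time-resolved fluorescence of Aβ40 in supernatant, captured by pAb40 and detected with biotinylated 6E10 plus Streptavidin-Europium. Cells stably expressing APP received compounds for 24 h over 10 concentrations starting at 100 μM or 10 μM, final DMSO 0.1%.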
A general note: An ELISA detects its analyte on a solid surface through an enzyme-linked reagent.

SMILES strings stand for the structures.

T1 sequence (P56817 46-501, species assumed): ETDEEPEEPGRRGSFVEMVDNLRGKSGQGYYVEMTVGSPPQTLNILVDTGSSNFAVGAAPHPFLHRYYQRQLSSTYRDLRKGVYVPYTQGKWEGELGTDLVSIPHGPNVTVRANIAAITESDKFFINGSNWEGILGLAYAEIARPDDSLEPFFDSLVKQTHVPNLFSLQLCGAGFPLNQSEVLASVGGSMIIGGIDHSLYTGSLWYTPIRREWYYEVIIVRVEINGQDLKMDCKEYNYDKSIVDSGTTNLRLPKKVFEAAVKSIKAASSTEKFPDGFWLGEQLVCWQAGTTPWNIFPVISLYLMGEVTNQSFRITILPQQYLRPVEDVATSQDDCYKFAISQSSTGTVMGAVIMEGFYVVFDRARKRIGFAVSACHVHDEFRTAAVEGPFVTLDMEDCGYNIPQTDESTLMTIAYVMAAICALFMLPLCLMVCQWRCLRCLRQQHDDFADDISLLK

`CC(C)(F)COc1cnc2c(c1)[C@]1(COC(N)=N1)c1cc(-c3cccnc3F)ccc1O2` [compound 449]: the IC50 at BACE1 [1] and at BACE1 [2] (HEK cells) was below 100 nM each time.

Consider `CC(C)(C)C#Cc1ccc2c(c1)[C@@]1(COC(N)=N1)c1cc(C#CC(C)(C)C)cnc1O2` [compound 897], for which the IC50 at BACE1 [1] (Table IV, class symbols) was below 100 nM; on BACE1 [2] (Table IV, class symbols), 100 to 1000 nM.

With `CC1(C)CN(c2cc(F)c3c(c2)[C@]2(COC(N)=N2)c2cc(-c4cccnc4)ccc2O3)CCO1` [compound 484], the IC50 at BACE1 [1] and on BACE1 [2] (HEK cells) was below 100 nM each time.

Turning to `CCCOc1ccc2c(c1)[C@@]1(COC(N)=N1)c1cc(-c3cncnc3)ccc1O2` [Example 11, (4R)-2′-propoxy-7′-(5-pyrimidinyl)spiro[1,3-oxazole-4,9′-xanthen]-2-amine], the IC50 was in the range of 100 to 1000 nM at BACE1 [1] (Table 1) and 1000 to 5000 nM on BACE1 [2] (Table 1, Aβ40, 24 h incubation).

As to `CC(C)(C)OC(=O)Cc1ccc2c(c1)[C@]1(COC(N)=N1)c1cc(Br)ccc1O2` [compound 707], the IC50 at BACE1 [1] and on BACE1 [2] was above 5000 nM each time.

For `CC(C)(C)COc1ccc2c(c1)[C@]1(COC(N)=N1)c1cc(C#N)ccc1O2` [compound 959], the IC50 was in the range of 100 to 1000 nM on BACE1 [1] and 1000 to 5000 nM on BACE1 [2].

With `CCCOc1cc2c(cc1F)Oc1ccc(-c3cccnc3)cc1[C@@]21COC(N)=N1` [compound 938], the IC50 at BACE1 [1] and on BACE1 [2] was below 100 nM each time.

In the case of `NC1=N[C@]2(CO1)c1ccccc1Oc1ccc(-c3cc4ccccc4[nH]3)cc12` [compound 567], the IC50 is 1000 to 5000 nM at BACE1 [1] (Table IV, class symbols) and above 5000 nM at BACE1 [2] (Table IV, class symbols).

Consider `NC1=N[C@@]2(CO1)c1cc(-c3cccnc3)ccc1Oc1ccc(-c3cscn3)cc12` [compound 671], for which the IC50 on BACE1 [1] and at BACE1 [2] was below 100 nM throughout.

Consider `CC(C)(C)COc1ccc2c(c1)[C@@]1(COC(N)=N1)c1cc(-c3cccnc3F)cnc1O2` [compound 870], for which the IC50 is below 100 nM at BACE1 [1] (Table IV, class symbols) and below 100 nM at BACE1 [2] (Table IV, class symbols).

`CC1(COc2ccc3c(c2)[C@]2(COC(N)=N2)c2cc(-c4cncnc4)cc(F)c2O3)COC1` [compound 796]: the IC50 at BACE1 [1] (Table IV, class symbols) was below 100 nM; on BACE1 [2] (Table IV, class symbols), 100 to 1000 nM.

On to `CN1CCN(c2ccc3c(c2)[C@@]2(COC(N)=N2)c2cc(OCC(C)(C)C)ccc2O3)CC1` [compound 812], for which the IC50 fell in the range of 1000 to 5000 nM on BACE1 [1] (Table IV, class symbols) and 100 to 1000 nM at BACE1 [2] (Table IV, class symbols).

Regarding `CC(C)(C#N)COc1cc2c(cc1F)Oc1ccc(-c3cccnc3)cc1[C@@]21COC(N)=N1` [compound 547], the IC50 is below 100 nM at BACE1 [1] (Table IV, class symbols) and below 100 nM on BACE1 [2] (Table IV, class symbols).

Turning to `CC1(C)CN(c2cnc3c(c2)[C@]2(COC(N)=N2)c2cc(-c4cccnc4F)ccc2O3)CCO1` [compound 463], the IC50 on BACE1 [1] and on BACE1 [2] (HEK cells) was below 100 nM throughout.

Take `CC(C)(C)c1nc(-c2ccc3c(c2)[C@]2(COC(N)=N2)c2cc(-c4cccnc4)ccc2O3)cs1` [compound 622]: the IC50 on BACE1 [1] (Table IV, class symbols) was below 100 nM; at BACE1 [2] (Table IV, class symbols), 100 to 1000 nM.

Consider `CC(C)(C)C#Cc1cnc2c(c1)[C@]1(COC(N)=N1)c1cc(-c3ccc(F)nc3)ccc1O2` [compound 766], for which the IC50 at BACE1 [1] and on BACE1 [2] was below 100 nM each time.

Take `CC(C)(C)C#Cc1cnc2c(c1)[C@]1(COC(N)=N1)c1cc(-c3cnccn3)ccc1O2` [compound 654]: the IC50 is below 100 nM on BACE1 [1] (Table IV, class symbols) and below 100 nM on BACE1 [2] (Table IV, class symbols).

For `CCOCC(=O)Nc1ccc2c(c1)[C@@]1(COC(N)=N1)c1cc(OC)ccc1O2` [compound 376], the IC50 lay within 100 to 1000 nM on BACE1 [1] (in vitro BACE FRET enzyme assay, IC50 class symbols) and 100 to 1000 nM on BACE1 [2] (HEK cell-based assay, Aβ40 in conditioned medium, IC50 class symbols).

For `CC(C)(C)C#Cc1ccc2c(c1)[C@@]1(COC(N)=N1)c1cc(C#CC(C)(C)C)cnc1O2` [compound 1000], the IC50 on BACE1 [1] is below 100 nM; at BACE1 [2], 100 to 1000 nM.

Turning to `CC1(COc2ccc3c(c2)[C@@]2(COC(N)=N2)c2cc(C#CC4CC4)cnc2O3)COC1` [compound 967], the IC50 on BACE1 [1] was below 100 nM; at BACE1 [2], 100 to 1000 nM.

Take `CC(C)(C)COc1cc2c(cc1F)[C@]1(COC(N)=N1)c1cc(-c3cncnc3)ccc1O2` [compound 999]: the IC50 on BACE1 [1] was 1000 to 5000 nM; at BACE1 [2], above 5000 nM.
